“And” between values parts separate entries of the source, which are not always exact repeats. Identical values can stand only once.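 Growth conditions: 96-well plates. Treatment: test compound, 48 hours, 5 concentrations. Analysis: linear interpolation between bracketing concentrations; unreached endpoints set to highest concentration. GI50 = concentration required for 50% inhibition of growth. TGI: total growth inhibition.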 Bounds are passed on as bounds.

In the first assay the test system is HCC-2998 colon. The assay is described as follows: NCI tumour cell line growth inhibition, 48 h.
In turn, `Cc1c2ccncc2c(C)c2c1[nH]c1ccc(O)c(OCC(F)(F)F)c12` yielded a TGI of 19.3 µM.

`O=C1[C@H]2ON(c3ccccc3)C(c3ccco3)[C@H]2C(=O)N1c1ccc(Cc2ccc(N3C(=O)[C@@H]4ON(c5ccccc5)C(c5ccco5)[C@@H]4C3=O)cc2)cc1` (stereo partly drawn) registered a TGI above 100 µM.

On to `O=C(Cl)C1=C(c2ccccc2)C1c1ccccc1` (stereo not drawn), for which the TGI is above 100 µM.

On to `Cc1cccc(C)c1N1C(=O)C(=O)C(c2nc3ccccc3s2)/C(=N/NC(=O)NN)C1=O` (stereo not drawn), for which the TGI was above 100 µM.

As to `c1cnn2ncc(-c3ccnc(Nc4ccc5c(c4)OCCO5)n3)c2c1`, the GI50 was 0.0911 µM and the TGI stood at 0.514 µM.

On to `Cc1ccc(-n2nc(C(C)(C)C)cc2NC(=O)NCc2cc(F)ccc2Oc2ccc3c(cnn3CCO)c2)cc1`, for which the GI50 was > 10 µM and 5.39 µM; the TGI was above 48.8 µM.

Regarding `COc1ccc2[nH]c(-c3ccc(O)cc3)cc(=O)c2c1`, the TGI worked out at 3.4 µM.

The molecule `Cc1cc(C)n(C2=NS(=O)(=O)c3ccccc3N2C)n1` came in with a TGI above 100 µM.

Turning to `COc1cccc2c(=O)c3c(sc12)c(NCCCNCCO)nc1ccccc13`, the GI50 was 1.59 µM and the TGI came to 3.21 µM.

`O=C1c2cccc3cccc(c23)C(=O)N1O`: the TGI is above 100 µM.

Consider `COc1ccc(Nc2nccc(N3CCN(c4c5ccc(Cl)cc5nc5ccc(OC)cc45)CC3)n2)cc1`, for which the GI50 was 23.5 µM and the TGI is above 100 µM.

As to `CC(=Nc1ccc(S(N)(=O)=O)cc1)c1c(O)[nH]c2ccccc12`, the GI50 was above 25 µM and the TGI was above 25 µM.

`COc1cc(CNc2nc3ccc(C(F)(F)F)cc3nc2-c2ccccc2)cc(OC)c1OC` displayed a TGI above 100 µM.

In turn, `O=S1CSSC1` showed a TGI of 45.8 µM.

The molecule `CN1c2ccccc2SC2C(c3ccccc3)=NOC21` (stereo not drawn) displayed a TGI above 100 µM.

In the case of `COc1c(O)c(OC)c2oc(-c3ccc(O)cc3)c(OC)c(=O)c2c1O`, the TGI was above 100 µM.

As to `COC(=O)C1C(=O)N(CCc2c[nH]c3ccccc23)C[C@@H]2CCC(=O)C[C@H]12` (stereo partly drawn), the TGI was above 100 µM.

As to `O=C(NCCN1CCNCC1)c1ccc(Nc2nc3ccccc3c3occc23)cc1`, the GI50 was 1.79 µM and the TGI is 3.9 µM.

Another assay deals with SF-539 CNS. The assay is described as follows: NCI tumour cell line growth inhibition, 48 h.
`Cc1c2ccncc2c(C)c2c1[nH]c1ccc(O)c(OCC(F)(F)F)c12`: the TGI turned out to be 16.3 µM.

Molecule `O=C1[C@H]2ON(c3ccccc3)C(c3ccco3)[C@H]2C(=O)N1c1ccc(Cc2ccc(N3C(=O)[C@@H]4ON(c5ccccc5)C(c5ccco5)[C@@H]4C3=O)cc2)cc1` (stereo partly drawn) showed a TGI above 100 µM.

In the case of `O=C(Cl)C1=C(c2ccccc2)C1c1ccccc1` (stereo not drawn), the TGI is above 100 µM.

The molecule `Cc1cccc(C)c1N1C(=O)C(=O)C(c2nc3ccccc3s2)/C(=N/NC(=O)NN)C1=O` (stereo not drawn) registered a TGI above 100 µM.

As to `c1cnn2ncc(-c3ccnc(Nc4ccc5c(c4)OCCO5)n3)c2c1`, the GI50 was 0.0679 µM and the TGI was 0.222 µM.

As to `Cc1ccc(-n2nc(C(C)(C)C)cc2NC(=O)NCc2cc(F)ccc2Oc2ccc3c(cnn3CCO)c2)cc1`, the GI50 is > 10 µM and 6.83 µM; the TGI is above 93.1 µM.

Molecule `COc1ccc2[nH]c(-c3ccc(O)cc3)cc(=O)c2c1` returned a TGI of 4.32 µM.

In turn, `Cc1cc(C)n(C2=NS(=O)(=O)c3ccccc3N2C)n1` came in with a TGI above 100 µM.

Consider `COc1cccc2c(=O)c3c(sc12)c(NCCCNCCO)nc1ccccc13`, for which the GI50 was 1.68 µM and the TGI is 3.1 µM.

In turn, `O=C1c2cccc3cccc(c23)C(=O)N1O` had a TGI above 100 µM.

Regarding `COc1ccc(Nc2nccc(N3CCN(c4c5ccc(Cl)cc5nc5ccc(OC)cc45)CC3)n2)cc1`, the GI50 was 22.7 µM and the TGI was above 100 µM.

Consider `CC(=Nc1ccc(S(N)(=O)=O)cc1)c1c(O)[nH]c2ccccc12`, for which the GI50 is above 25 µM and the TGI is above 25 µM.

Molecule `COc1cc(CNc2nc3ccc(C(F)(F)F)cc3nc2-c2ccccc2)cc(OC)c1OC` showed a TGI above 100 µM.

`CC1=NN(C(=O)c2ccncc2)C(=O)C1N=Nc1ccc(F)cc1` (stereo not drawn) registered a TGI above 100 µM.

As for `O=S1CSSC1`, the TGI came out at 40.1 µM.

In turn, `C=CCNC(=O)N(CCC)CCCC(NC(C)=O)C(=O)NCc1ccccc1` (stereo not drawn) had a TGI above 100 µM.

For the molecule `CN1c2ccccc2SC2C(c3ccccc3)=NOC21` (stereo not drawn), the TGI was above 100 µM.

`COc1c(O)c(OC)c2oc(-c3ccc(O)cc3)c(OC)c(=O)c2c1O` yielded a TGI above 100 µM.

Consider `COC(=O)C1C(=O)N(CCc2c[nH]c3ccccc23)C[C@@H]2CCC(=O)C[C@H]12` (stereo partly drawn), for which the TGI is above 100 µM.

For `C[C@]12C/C(=C/O)C(=O)C(O)=C1CC[C@@H]1C2CC[C@@]2(C)C1CC[C@@H]2O` (stereo partly drawn), the TGI was found to be 34.2 µM.

In the case of `O=C1c2ccccc2-c2c1c1c(NCCCO)nc3ccccc3c1n2Cc1ccccc1`, the GI50 is 18.5 µM and the TGI is 36.7 µM.

As to `O=C(NCCN1CCNCC1)c1ccc(Nc2nc3ccccc3c3occc23)cc1`, the GI50 is 2.65 µM and the TGI was 6.36 µM.

The next assay deals with HL-60(TB) leukemia. The assay is described as follows: NCI tumour cell line growth inhibition, 48 h.
Turning to `Cc1c2ccncc2c(C)c2c1[nH]c1ccc(O)c(OCC(F)(F)F)c12`, the TGI amounted to 11.6 µM.

`O=C1[C@H]2ON(c3ccccc3)C(c3ccco3)[C@H]2C(=O)N1c1ccc(Cc2ccc(N3C(=O)[C@@H]4ON(c5ccccc5)C(c5ccco5)[C@@H]4C3=O)cc2)cc1` (stereo partly drawn) yielded a TGI above 100 µM.

The molecule `O=C(Cl)C1=C(c2ccccc2)C1c1ccccc1` (stereo not drawn) showed a TGI above 100 µM.

Turning to `Cc1cccc(C)c1N1C(=O)C(=O)C(c2nc3ccccc3s2)/C(=N/NC(=O)NN)C1=O` (stereo not drawn), the TGI was above 100 µM.

As for `c1cnn2ncc(-c3ccnc(Nc4ccc5c(c4)OCCO5)n3)c2c1`, the GI50 is 0.0423 µM and the TGI was found to be 0.155 µM.

`Cc1ccc(-n2nc(C(C)(C)C)cc2NC(=O)NCc2cc(F)ccc2Oc2ccc3c(cnn3CCO)c2)cc1`: the GI50 was 1.41 µM and 2.09 µM; the TGI is > 10 µM and 10.1 µM.

`COc1ccc2[nH]c(-c3ccc(O)cc3)cc(=O)c2c1` came in with a TGI of 2.16 µM.

Turning to `Cc1cc(C)n(C2=NS(=O)(=O)c3ccccc3N2C)n1`, the TGI was above 100 µM.

For `COc1cccc2c(=O)c3c(sc12)c(NCCCNCCO)nc1ccccc13`, the GI50 is 1.73 µM and the TGI came out at 3.5 µM.

On to `O=C1c2cccc3cccc(c23)C(=O)N1O`, for which the TGI was above 100 µM.

`COc1ccc(Nc2nccc(N3CCN(c4c5ccc(Cl)cc5nc5ccc(OC)cc45)CC3)n2)cc1`: the GI50 was 7.22 µM and the TGI is above 100 µM.
